Source: patent publication US11161842B2, “Bifunctional molecules for degradation of EGFR and methods of use” (Dana-Farber Cancer Institute, Inc., priority 2016, dated 2021)

Experiments:
[1] = target: T1, T790M/L858R/C797S transformed Ba/F3 cells (Homo sapiens, UniProt P00533, T790M/C797S/L858R, cells depend on it); experiment: Ba/F3 cell proliferation (MTS) assay, T790M/L858R/C797S; assay type: cell-based, murine; conditions: antiproliferative activity
T1 construct: The constructs were shuttled into the retroviral vector JP 1540 using the BD Creator™ System (BD Biosciences)
T1 sequence (P00533 whole entry T790M/C797S/L858R): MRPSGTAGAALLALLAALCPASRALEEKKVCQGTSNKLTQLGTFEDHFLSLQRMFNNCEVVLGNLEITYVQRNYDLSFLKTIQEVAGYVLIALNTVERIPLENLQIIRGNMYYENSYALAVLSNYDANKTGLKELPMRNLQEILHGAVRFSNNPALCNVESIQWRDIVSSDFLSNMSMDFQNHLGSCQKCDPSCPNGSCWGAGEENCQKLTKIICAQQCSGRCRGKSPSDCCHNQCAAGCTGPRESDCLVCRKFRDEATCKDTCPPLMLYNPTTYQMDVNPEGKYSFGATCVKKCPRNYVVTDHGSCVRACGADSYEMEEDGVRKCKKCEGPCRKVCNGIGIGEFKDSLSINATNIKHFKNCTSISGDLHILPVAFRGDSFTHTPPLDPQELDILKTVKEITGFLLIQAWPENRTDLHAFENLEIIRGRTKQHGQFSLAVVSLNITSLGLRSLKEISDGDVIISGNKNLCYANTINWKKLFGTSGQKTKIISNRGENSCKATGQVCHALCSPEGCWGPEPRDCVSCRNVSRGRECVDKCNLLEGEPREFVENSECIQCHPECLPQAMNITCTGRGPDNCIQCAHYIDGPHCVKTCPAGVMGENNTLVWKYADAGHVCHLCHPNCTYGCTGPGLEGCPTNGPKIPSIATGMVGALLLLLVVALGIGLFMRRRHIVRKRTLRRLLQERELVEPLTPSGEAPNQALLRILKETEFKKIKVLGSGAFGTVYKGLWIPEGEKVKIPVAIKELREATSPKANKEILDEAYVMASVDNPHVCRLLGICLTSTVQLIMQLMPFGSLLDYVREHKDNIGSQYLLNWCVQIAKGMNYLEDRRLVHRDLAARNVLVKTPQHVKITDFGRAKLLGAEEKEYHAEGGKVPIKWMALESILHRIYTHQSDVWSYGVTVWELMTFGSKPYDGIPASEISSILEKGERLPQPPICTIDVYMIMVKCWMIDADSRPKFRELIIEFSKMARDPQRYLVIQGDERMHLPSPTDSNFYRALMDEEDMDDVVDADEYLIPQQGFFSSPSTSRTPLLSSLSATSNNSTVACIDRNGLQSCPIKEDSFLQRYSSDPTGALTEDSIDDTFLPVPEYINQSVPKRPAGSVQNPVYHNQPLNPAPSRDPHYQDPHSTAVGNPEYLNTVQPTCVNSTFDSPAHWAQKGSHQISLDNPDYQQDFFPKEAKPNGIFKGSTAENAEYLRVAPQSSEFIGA

[2] = target: T2, T790M/L858R transformed Ba/F3 cells (Homo sapiens, UniProt P00533, T790M/L858R, cells depend on it); experiment: Ba/F3 cell proliferation (MTS) assay, T790M/L858R; assay type: cell-based, murine; conditions: for EC50: antiproliferative activity; for % control: compound at 1 μM, inhibition of growth as percent of control
T2 construct: The constructs were shuttled into the retroviral vector JP 1540 using the BD Creator™ System (BD Biosciences)
T2 sequence (P00533 whole entry T790M/L858R): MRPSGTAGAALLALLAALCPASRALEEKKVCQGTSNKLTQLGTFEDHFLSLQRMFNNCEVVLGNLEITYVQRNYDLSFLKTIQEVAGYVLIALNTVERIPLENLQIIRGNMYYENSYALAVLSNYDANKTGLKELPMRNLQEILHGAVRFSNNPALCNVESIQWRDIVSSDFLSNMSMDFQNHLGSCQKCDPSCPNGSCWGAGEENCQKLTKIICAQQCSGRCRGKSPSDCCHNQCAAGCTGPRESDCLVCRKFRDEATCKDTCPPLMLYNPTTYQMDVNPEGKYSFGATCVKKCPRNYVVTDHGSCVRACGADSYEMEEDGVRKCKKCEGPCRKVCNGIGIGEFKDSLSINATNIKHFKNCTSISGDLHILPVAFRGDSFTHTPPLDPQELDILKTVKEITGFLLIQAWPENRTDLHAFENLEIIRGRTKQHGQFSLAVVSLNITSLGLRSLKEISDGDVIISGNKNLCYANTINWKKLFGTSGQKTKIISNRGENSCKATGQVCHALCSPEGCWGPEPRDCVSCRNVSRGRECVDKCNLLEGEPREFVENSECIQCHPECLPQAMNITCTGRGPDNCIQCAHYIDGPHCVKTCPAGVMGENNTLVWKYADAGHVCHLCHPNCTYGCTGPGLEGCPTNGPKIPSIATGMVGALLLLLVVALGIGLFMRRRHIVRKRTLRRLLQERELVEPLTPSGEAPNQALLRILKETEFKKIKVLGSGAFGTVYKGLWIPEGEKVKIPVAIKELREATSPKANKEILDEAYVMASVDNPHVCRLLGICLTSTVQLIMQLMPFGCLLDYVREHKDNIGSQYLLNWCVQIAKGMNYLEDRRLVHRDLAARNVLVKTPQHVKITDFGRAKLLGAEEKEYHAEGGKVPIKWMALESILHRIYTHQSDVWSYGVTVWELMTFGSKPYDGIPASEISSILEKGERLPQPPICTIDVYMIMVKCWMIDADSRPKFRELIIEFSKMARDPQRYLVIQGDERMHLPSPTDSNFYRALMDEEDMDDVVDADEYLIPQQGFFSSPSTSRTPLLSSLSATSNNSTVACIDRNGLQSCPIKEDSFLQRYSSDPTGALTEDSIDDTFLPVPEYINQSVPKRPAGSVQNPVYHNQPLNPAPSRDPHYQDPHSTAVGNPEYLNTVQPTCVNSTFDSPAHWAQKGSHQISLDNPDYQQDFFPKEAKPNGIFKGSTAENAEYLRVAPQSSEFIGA
Source text: The EGFR mutant L858R, Del E746_A750, L858R/T790M, DelE746_A750/T790M, L858R/T790M/C797S and Del/T790M/C797S Ba/F3 cells have been previously described (Zhou, W., Ercan, D., Chen, L., Yun, C. H., Li, D., Capelletti, M., Cortot, A. B., Chirieac, L., Iacob, R. E., Padera, R., et al. “Novel mutant-selective EGFR kinase inhibitors against EGFR T790M,” Nature 462, (2009), 1070-1074). All cell lines were maintained in RPMI 1640 (Cellgro; Mediatech Inc., Herndon, Calif.) supplemented with 10% FBS 100 units/mL penicillin, 100 units/mL streptomycin, and 2 mM glutamine. L858R cells were maintained in ACL-4 media (Invitrogen, Carlsbad, Calif.) supplemented with 5% FBS, 100 units/mL penicillin, 100 units/mL streptomycin, and 2 mM glutamine. The EGFR I941R mutation was introduced via site directed mutagenesis using the Quick Change Site-Directed Mutagenesis kit (Stratagene; La Jolla, Calif.) according to the manufacturer's instructions. All constructs were confirmed by DNA sequencing. The constructs were shuttled into the retroviral vector JP 1540 using the BD Creator™ System (BD Biosciences). Ba/F3 cells were infected with retrovirus and according to standard protocols, as described previously (Zhou et al, Nature 2009). Stable clones were obtained by selection in puromycin (2 μg/ml).
Growth and inhibition of growth was assessed by MTS assay and was performed according to previously established methods (Zhou et al., Nature 2009). The MTS assay is a colorimetric method for determining the number of viable cells that is based on the bioreduction of MTS by cells to a formazan product that is soluble in cell culture medium and can be detected spectrophotometrically. Ba/F3 cells of different EGFR genotypes were exposed to treatment for 72 hours and the number of cells used per experiment determined empirically and has been previously established (Zhou et al., Nature 2009). All experimental points were set up in six wells and all experiments were repeated at least three times. […] The curves were fitted using a non-linear regression model with a sigmoidal dose response.
Compounds of Table 1 were tested at a concentration of 1 μM against T790M/L858R transformed Ba/F3 cells. The assay, as described in Example 42, measured inhibition of growth as a percent of the inhibitory activity of the control. In Table 1, A is 0<% control <25, B is 25<% control <50, C is 50<% control <75, and D is 75<% control.
Compounds of Table 2 were tested in a T790M/L858R transformed Ba/F3 cell line as described in Example 42 and the EC50 values were calculated. In Table 2, A is EC50<500 nM, B is 500 nM<EC50<1000 nM, C is 1000 nM<EC50<5000 nM, and D is 5000 nM<EC50.

EC50 [1] [nM] | EC50 [2] [nM] | % control [2] | Structure (SMILES)
> 5000 | 1000 to 5000 | D (D is 75<% control) | O=C1CCC(N2C(=O)c3cccc(NCCOCCOCCOCCN4CCN(c5ccc(-c6ccc7c(c6)C(=O)N(C(C(=O)Nc6nccs6)c6ccccc6O)C7)cn5)CC4)c3C2=O)C(=O)N1 (centres unmarked) [Compound I-14, 2-(6-(6-(4-(2-(2-(2-(2-((2-(2,6-Dioxopiperidin-3-yl)-1,3-dioxoisoindolin-4-yl)amino)ethoxy)ethoxy)ethoxy)ethyl)piperazin-1-yl)pyridin-3-yl)-1-oxoisoindolin-2-yl)-2-(2-hydroxyphenyl)-N-(thiazol-2-yl)acetamide]
> 5000 | 1000 to 5000 | C (C is 50<% control <75) | O=C1CCC(N2C(=O)c3cccc(NC4CN(CCOCCOCCN5CCN(c6ccc(-c7ccc8c(c7)C(=O)N(C(C(=O)Nc7nccs7)c7ccccc7)C8)cc6)CC5)C4)c3C2=O)C(=O)N1 (centres unmarked) [Compound I-15, 2-(6-(4-(4-(2-(2-(2-(3-((2-(2,6-Dioxopiperidin-3-yl)-1,3-dioxoisoindolin-4-yl)amino)azetidin-1-yl)ethoxy)ethoxy)ethyl)piperazin-1-yl)phenyl)-1-oxoisoindolin-2-yl)-2-phenyl-N-(thiazol-2-yl)acetamide]
> 5000 | 1000 to 5000 | C (C is 50<% control <75) | O=C1CCC(N2C(=O)c3cccc(NC4CN(CCOCCOCCOCCN5CCN(c6ccc(-c7ccc8c(c7)C(=O)N(C(C(=O)Nc7nccs7)c7ccccc7)C8)cc6)CC5)C4)c3C2=O)C(=O)N1 (centres unmarked) [Compound I-16, 2-(6-(4-(4-(2-(2-(2-(2-(3-((2-(2,6-Dioxopiperidin-3-yl)-1,3-dioxoisoindolin-4-yl)amino)azetidin-1-yl)ethoxy)ethoxy)ethoxy)ethyl)piperazin-1-yl)phenyl)-1-oxoisoindolin-2-yl)-2-phenyl-N-(thiazol-2-yl)acetamide]
< 500 | < 500 | A (A is 0<% control <25) | O=C1CCC(N2C(=O)c3cccc(NCCOCCOCCOCCN4CCN(c5ccc(-c6ccc7c(c6)C(=O)N(C(C(=O)Nc6nccs6)c6ccccc6)C7)cc5)CC4)c3C2=O)C(=O)N1 (centres unmarked) [Compound I-18, 2-(6-(4-(4-(2-(2-(2-(2-((2-(2,6-Dioxopiperidin-3-yl)-1,3-dioxoisoindolin-4-yl)amino)ethoxy)ethoxy)ethoxy)ethyl)piperazin-1-yl)phenyl)-1-oxoisoindolin-2-yl)-2-phenyl-N-(thiazol-2-yl)acetamide]
< 500 | < 500 | A (A is 0<% control <25) | O=C1CCC(N2C(=O)c3cccc(NCCOCCOCCOCCOCCN4CCN(c5ccc(-c6ccc7c(c6)C(=O)N(C(C(=O)Nc6nccs6)c6ccccc6)C7)cc5)CC4)c3C2=O)C(=O)N1 (centres unmarked) [Compound I-20, 2-(6-(4-(4-(14-((2-(2,6-Dioxopiperidin-3-yl)-1,3-dioxoisoindolin-4-yl)amino)-3,6,9,12-tetraoxatetradecyl)piperazin-1-yl)phenyl)-1-oxoisoindolin-2-yl)-2-phenyl-N-(thiazol-2-yl)acetamide]
500 to 1000 | < 500 | A (A is 0<% control <25) | O=C1CCC(N2C(=O)c3cccc(NCCOCCOCCOCCN4CCN(c5ccc(-c6ccc7c(c6)C(=O)N(C(C(=O)Nc6nccs6)c6ccccc6)C7)cn5)CC4)c3C2=O)C(=O)N1 (centres unmarked) [Compound I-22, 2-(6-(6-(4-(2-(2-(2-(2-((2-(2,6-Dioxopiperidin-3-yl)-1,3-dioxoisoindolin-4-yl)amino)ethoxy)ethoxy)ethoxy)ethyl)piperazin-1-yl)pyridin-3-yl)-1-oxoisoindolin-2-yl)-2-phenyl-N-(thiazol-2-yl)acetamide]
> 5000 | > 5000 | D (D is 75<% control) | Cc1ncsc1-c1ccc([C@H](C)NC(=O)[C@@H]2C[C@@H](O)CN2C(=O)[C@@H](NC(=O)CCOCCOCCOCCN2CCN(c3ccc(-c4ccc5c(c4)C(=O)N(C(C(=O)Nc4nccs4)c4ccccc4)C5)cn3)CC2)C(C)(C)C)cc1 (stereo partly drawn) [Compound I-23, (2S,4R)-1-((14S)-14-(tert-Butyl)-12-oxo-1-(4-(5-(3-oxo-2-(2-oxo-1-phenyl-2-(thiazol-2-ylamino)ethyl)isoindolin-5-yl)pyridin-2-yl)piperazin-1-yl)-3,6,9-trioxa-13-azapentadecan-15-oyl)-4-hydroxy-N—((S)-1-(4-(4-methylthiazol-5-yl)phenyl)ethyl)pyrrolidine-2-carboxamide]
> 5000 | > 5000 |  | Cc1ncsc1-c1ccc([C@H](C)NC(=O)[C@@H]2C[C@@H](O)CN2C(=O)[C@@H](NC(=O)CCOCCOCCN2CCN(c3ccc(-c4ccc5c(c4)C(=O)N(C(C(=O)Nc4nccs4)c4ccccc4)C5)cn3)CC2)C(C)(C)C)cc1 (stereo partly drawn) [Compound I-24, (2S,4R)-1-((2S)-3,3-Dimethyl-2-(3-(2-(2-(4-(5-(3-oxo-2-(2-oxo-1-phenyl-2-(thiazol-2-ylamino)ethyl)isoindolin-5-yl)pyridin-2-yl)piperazin-1-yl)ethoxy)ethoxy)propanamido)butanoyl)-4-hydroxy-N—((S)-1-(4-(4-methylthiazol-5-yl)phenyl)ethyl)pyrrolidine-2-carboxamide]
> 5000 | 500 to 1000 | A (A is 0<% control <25) | O=C1CCC(N2C(=O)c3cccc(NCCOCCOCCC(=O)N4CCN(c5ccc(-c6ccc7c(c6)C(=O)N(C(C(=O)Nc6nccs6)c6cc(F)ccc6O)C7)cc5)CC4)c3C2=O)C(=O)N1 (centres unmarked) [Compound I-28, 2-(6-(4-(4-(3-(2-(2-((2-(2,6-dioxopiperidin-3-yl)-1,3-dioxoisoindolin-4-yl)amino)ethoxy)ethoxy)propanoyl)piperazin-1-yl)phenyl)-1-oxoisoindolin-2-yl)-2-(5-fluoro-2-hydroxyphenyl)-N-(thiazol-2-yl)acetamide]
> 5000 | 500 to 1000 | A (A is 0<% control <25) | O=C1CCC(N2C(=O)c3cccc(NCCOCCC(=O)N4CCN(c5ccc(-c6ccc7c(c6)C(=O)N(C(C(=O)Nc6nccs6)c6cc(F)ccc6O)C7)cc5)CC4)c3C2=O)C(=O)N1 (centres unmarked) [Compound I-29, 2-(6-(4-(4-(3-(2-((2-(2,6-dioxopiperidin-3-yl)-1,3-dioxoisoindolin-4-yl)amino)ethoxy)propanoyl)piperazin-1-yl)phenyl)-1-oxoisoindolin-2-yl)-2-(5-fluoro-2-hydroxyphenyl)-N-(thiazol-2-yl)acetamide]
1000 to 5000 | < 500 | A (A is 0<% control <25) | O=C1CCC(N2C(=O)c3cccc(NCCOCCOCCN4CCN(c5ccc(-c6ccc7c(c6)C(=O)N(C(C(=O)Nc6nccs6)c6cc(F)ccc6O)C7)cc5)CC4)c3C2=O)C(=O)N1 (centres unmarked) [Compound I-33]
